What was measured:
BRAPP = assay: Post-emergence foliar-applied herbicidal mixtures, greenhouse, direct seeded rice weeds; type: in vivo
Text: (§1) Seeds or nutlets of the desired test plant species were planted in a soil matrix prepared by mixing a loam or sandy loam soil (e.g., 28.6 percent silt, 18.8 percent clay, and 52.6 percent sand, with a pH of about 5.8 and an organic matter content of about 1.8 percent) and calcareous grit in an 80 to 20 ratio. The soil matrix was contained in plastic pots with a volume of 1 quart and a surface area of 83.6 square centimeters (cm^2). When required to ensure good germination and healthy plants, a fungicide treatment and/or other chemical or physical treatment was applied. The plants were grown for 8-22 days in a greenhouse with an approximate 14 hr photoperiod which was maintained at about 29° C. during the day and 26° C. during the night. Nutrients (Peters Excel® 15-5-15 5-Ca 2-Mg and iron chelate) were applied in the irrigation solution as needed and water was added on a regular basis. Supplemental lighting was provided with overhead metal halide 1000-Watt lamps as necessary. The plants were employed for testing when they reached the first through fourth true leaf stage.
(§2) Treatments consisted of the acid or esters of 4-amino-3-chloro-5-fluoro-6-(4-chloro-2-fluoro-3-methoxy-phenyl)pyridine-2-carboxylic acid (Compound A), each formulated as an SC (suspension concentrate), and various herbicidal components alone and in combination. Forms of compound A were applied on an acid equivalent basis.
(§3) Other herbicidal components were applied on an active ingredient basis and included the acetolactate synthase (ALS)-inhibiting herbicides halosulfuron-methyl formulated as Permit® 75 WDG, pyrazosulfuron-ethyl formulated as Agreen® WG or Sirius® G, and the VLCFA inhibiting herbicide esprocarb (technical grade material).
(§4) Treatment requirements were calculated based upon the rates being tested, the concentration of active ingredient or acid equivalent in the formulation, and a 12 mL application volume at a rate of 187 L/ha.
(§5) For treatments comprised of formulated compounds, measured amounts of compounds were placed individually in 25 mL glass vials and diluted in a volume of 1.25% (v/v) Agri-Dex® crop oil concentrated to obtain 12× stock solutions. […] Application solutions were prepared by adding an appropriate amount of each stock solution (e.g., 1 mL) and diluted to the appropriate final concentrations with the addition of 10 mL of an aqueous mixture of 1.25% (v/v) crop oil concentrate so that the final spray solutions contained 1.25+/−0.05% (v/v) crop oil concentrate.
(§6) For treatments comprised of technical compounds, weighed amounts can be placed individually in 25 mL glass vials and dissolved in a volume of 97:3 v/v acetone/DMSO to obtain 12× stock solutions. […] Application solutions can be prepared by adding an appropriate amount of each stock solution (e.g., 1 mL) and diluted to the appropriate final concentrations with the addition of 10 mL of an aqueous mixture of 1.5% (v/v) crop oil concentrate so that the final spray solutions contain 1.25% (v/v) crop oil concentrate. When technical materials are used, the concentrated stock solutions can be added to the spray solutions so that the final acetone and DMSO concentrations of the application solutions are 16.2% and 0.5%, respectively.
(§7) For treatments comprised of formulated and technical compounds, weighed amounts of the technical materials were placed individually in 25 mL glass vials and dissolved in a volume of 97:3 v/v acetone/DMSO to obtain 12× stock solutions, and measured amounts of the formulated compounds were placed individually in 25 mL glass vials and diluted in a volume of 1.5% (v/v) crop oil concentrate or water to obtain 12× stock solutions. […] Application solutions were prepared by adding an appropriate amount of each stock solution (e.g., 1 mL) and diluted to the appropriate final concentrations with the addition of an appropriate amount of an aqueous mixture of 1.5% (v/v) crop oil concentrate so that the final spray solutions contained 1.25% (v/v) crop oil concentrate. […]

DIGSA = assay: as above; type: in vivo, Digitaria sanguinalis (L.) Scop.
Text: as §1, §2, §3, §4, §5, §6, §7

ECHOR = assay: In-water applied herbicidal mixtures, greenhouse, transplanted paddy rice weeds; type: in vivo, Echinochloa oryzoides (Ard.) Fritsch
Method: (§8) Weed seeds or nutlets of the desired test plant species were planted in puddled soil (mud) prepared by mixing a shredded, non-sterilized mineral soil (50.5 percent silt, 25.5 percent clay, and 24 percent sand, with a pH of about 7.6 and an organic matter content of about 2.9 percent) and water at a 1:1 volumetric ratio. The prepared mud was dispensed in 365 mL aliquots into 16-ounce (oz.) non-perforated plastic pots with a surface area of 86.59 square centimeters (cm^2) leaving a headspace of 3 centimeters (cm) in each pot Mud was allowed to dry overnight prior to planting or transplanting. Rice seeds were planted in Sun Gro MetroMix® 306 planting mixture, which typically has a pH of 6.0 to 6.8 and an organic matter content of about 30 percent, in plastic plug trays. Seedlings at the second or third leaf stage of growth were transplanted into 840 mL of mud contained in 32-oz. non-perforated plastic pots with a surface area of 86.59 cm^2 4 days prior to herbicide application. The paddy was created by filling the headspace of the pots with 2.5 to 3 cm of water. When required to ensure good germination and healthy plants, a fungicide treatment and/or other chemical or physical treatment was applied. The plants were grown for 4-22 days in a greenhouse with an approximate 14 hr photoperiod which was maintained at about 29′C during the day and 26° C. during the night. Nutrients were added as Osmocote® (19:6:12, N:P:K^+ minor nutrients) at 2 g per 16-oz. pot and 4 g per 32-oz. pot. Water was added on a regular basis to maintain the paddy flood, and supplemental lighting was provided with overhead metal halide 1000-Watt lamps as necessary. The plants were employed for testing when they reached the first through fourth true leaf stage.
as §2, with “(compound A)” for “(Compound A),”, “concentrate)” for “concentrate),”
(§9) Other herbicidal components were applied on an active ingredient basis and included acetolactate synthase (ALS)-inhibiting herbicides formulated as Permit® 75 WDG, pyrazosulfuron-ethyl formulated as Agreen® WG or Sirius® G, and VLCFA inhibiting herbicide esprocarb (technical grade material).
(§10) Treatment requirements for each compound or herbicidal component were calculated based upon the rates being tested, the concentration of active ingredient or acid equivalent in the formulation, an application volume of 2 mL per component per pot, and an application area of 86.59 cm^2 per pot.
(§11) For formulated compounds, a measured amount was placed in an individual 100 or 200 mL glass vial and was dissolved in a volume of 1.25% (v/v) Agri-Dex® crop oil concentrate to obtain application solutions.
(§12) For technical grade compounds, a weighed amount was placed in an individual 100 to 200 mL glass vial and was dissolved in a volume of acetone to obtain concentrated stock solutions. […] The concentrated stock solutions obtained were diluted with an equivalent volume of an aqueous mixture containing 2.5% (v/v) crop oil concentrate so that the final application solutions contained 1.25% (v/v) crop oil concentrate.
(§13) Applications were made by injecting with a pipetter appropriate amounts of the application solutions, individually and sequentially, into the aqueous layer of the paddy. Control plants were treated in the same manner with the solvent blank. Applications were made so that all treated plant material received the same concentrations of acetone and crop oil concentrate.
(§14) The treated plants and control plants were placed in a greenhouse as described above and water was added as needed to maintain a paddy flood. […]

SCPMA = assay: as above; type: in vivo
Method: as §8
as §2, with “(compound A)” for “(Compound A),”, “concentrate)” for “concentrate),”
as §9, §10, §11, §12, §13, §14

LEFCH [1] = assay: as above; type: in vivo, Leptochloa chinensis (L.) Nees
Method: as §8, with “Water was added on a regular basis to maintain the paddy flood, and supplemental lighting was provided with overhead metal halide 1000-Watt lamps as necessary. The plants were employed for testing when they reached the first through fourth true leaf stage.” left out
as §10
(§15) For formulated compounds, a measured amount was placed in an individual 100 or 200 mL glass vial and was dissolved in a volume of 1.25% (v/v) Agri-Dex® crop oil concentrate to obtain application solutions. […]

ECHCO = assay: Post-emergence foliar-applied herbicidal mixtures, greenhouse, direct seeded rice weeds; type: in vivo, Echinochloa colona (L.) Link; details: 105 g ai/ha
Text: as §1, with “stage. […]” for “stage.”
as §4
(§16) For treatments comprised of formulated compounds, measured amounts of compounds were placed individually in 25 mL glass vials and diluted in a volume of 1.25% (v/v) Agri-Dex® crop oil concentrated to obtain 12× stock solutions. […]
(§17) For treatments comprised of formulated and technical compounds, weighed amounts of the technical materials were placed individually in 25 mL glass vials and dissolved in a volume of 97:3 v/v acetone/DMSO to obtain 12× stock solutions, and measured amounts of the formulated compounds were placed individually in 25 mL glass vials and diluted in a volume of 1.5% (v/v) crop oil concentrate or water to obtain 12× stock solutions. […]

CYPIR = assay: as above; type: in vivo, Cyperus iria L.
Text: as §1, §2, §3, §4, §16, §17

SCPJU [2] = assay: as above; type: in vivo, Schoenoplectus juncoides (Roxb.) Palla
Text: as §1, with “stage. […]” for “stage.”
as §4, §16, §17

CYPRO = assay: In-water applied herbicidal mixtures, greenhouse, transplanted paddy rice weeds; type: in vivo, Cyperus rotundus L.
Method: as §8
as §2, with “(compound A)” for “(Compound A),”, “concentrate)” for “concentrate),”
as §9, §10, §11, §12, §13, §14

FIMMI = assay: as above; type: in vivo, Fimbristylis miliacea (L.) Vahl
Method: as §8
as §2, with “(compound A)” for “(Compound A),”, “concentrate)” for “concentrate),”
as §9, §10, §11, §12
Applications were made by injecting with a pipetter appropriate amounts of the application solutions, individually and sequentially, into the aqueous layer of the paddy. […]

SCPJU [3] = assay: as above; type: in vivo, Schoenoplectus juncoides (Roxb.) Palla
Method: as §8
as §2, with “(compound A)” for “(Compound A),”, “concentrate)” for “concentrate),”, “basis. […]” for “basis.”
as §10, §15

LEFCH [4] = assay: Post-emergence foliar-applied herbicidal mixtures, greenhouse, direct seeded rice weeds; type: in vivo, Leptochloa chinensis (L.) Nees; details: 35 g ae/ha
Text: as §1, §2, §3, §4, §5, §6, §7

## CCOC(=O)c1cnn(C)c1S(=O)(=O)NC(=O)Nc1nc(OC)cc(OC)n1 [Pyrazosulfuron-ethyl, ethyl 5-[[[[(4,6-dimethoxy-2-pyrimidinyl)amino]carbonyl]amino]sulfonyl]-1-methyl-1H-pyrazole-4-carboxylate, reference compound]
BRAPP; 15 g ai/ha (Agreen WG)
  Visual Weed Control (%) - 21 DAA BRAPP Obs: 0%
BRAPP; 30 g ai/ha (Agreen WG)
  Visual Weed Control (%) - 21 DAA BRAPP Obs: 0%
BRAPP; 60 g ai/ha (Agreen WG)
  Visual Weed Control (%) - 21 DAA BRAPP Obs: 10%
DIGSA; 120 g ai/ha (Agreen WG)
  Visual Weed Control (%) - 20 DAA DIGSA Obs: 23%
  Visual Weed Control (%) - 21 DAA DIGSA Obs: 23%
ECHOR; 17.5 g ai/ha (Sirius G)
  Visual Weed Control (%) - 22 DAA ECHOR Obs: 0%
ECHOR; 35 g ai/ha (Sirius G)
  Visual Weed Control (%) - 22 DAA ECHOR Obs: 0%
ECHOR; 70 g ai/ha (Sirius G)
  Visual Weed Control (%) - 20 DAA ECHOR Obs: 70%
SCPMA; 17.5 g ai/ha (Sirius G)
  Visual Weed Control (%) - 22 DAA SCPMA Obs: 80%
SCPMA; 35 g ai/ha (Sirius G)
  Visual Weed Control (%) - 22 DAA SCPMA Obs: 70%
LEFCH [1]; 17.5 g ai/ha (Sirius G)
  Visual Weed Control (%) - 22 DAA LEFCH Obs: 0%
LEFCH [1]; 35 g ai/ha (Sirius G)
  Visual Weed Control (%) - 22 DAA LEFCH Obs: 0%

## CCN(C(=O)SCc1ccccc1)C(C)C(C)C (stereo not drawn) [Esprocarb, S-(phenylmethyl) N-(1,2-dimethylpropyl)-N-ethylcarbamothioate]
BRAPP; 52.5 g ai/ha
  Visual Weed Control (%) - 22 DAA BRAPP Obs: 0%
BRAPP; 105 g ai/ha
  Visual Weed Control (%) - 22 DAA BRAPP Obs: 0%
ECHCO
  Visual Weed Control (%) - 22 DAA ECHCO Obs: 0%
CYPIR; 52.5 g ai/ha
  Visual Weed Control (%) - 22 DAA CYPIR Obs: 0%
CYPIR; 105 g ai/ha
  Visual Weed Control (%) - 22 DAA CYPIR Obs: 0%
SCPJU [2]; 52.5 g ai/ha
  Visual Weed Control (%) - 22 DAA SCPJU Obs: 0%
SCPJU [2]; 105 g ai/ha
  Visual Weed Control (%) - 22 DAA SCPJU Obs: 0%
CYPRO; 105 g ai/ha
  Visual Weed Control (%) - 21 DAA CYPRO Obs: 0%
CYPRO; 210 g ai/ha
  Visual Weed Control (%) - 21 DAA CYPRO Obs: 50%
FIMMI; 105 g ai/ha
  Visual Weed Control (%) - 21 DAA FIMMI Obs: 0%
FIMMI; 210 g ai/ha
  Visual Weed Control (%) - 21 DAA FIMMI Obs: 0%
SCPJU [3]; 105 g ai/ha
  Visual Weed Control (%) - 21 DAA SCPJU Obs: 0%
SCPJU [3]; 210 g ai/ha
  Visual Weed Control (%) - 21 DAA SCPJU Obs: 0%

## CCCCOC(=O)c1nc(-c2ccc(Cl)c(OC)c2F)c(F)c(N)c1Cl [Compound A n-Butyl Ester]
DIGSA; 17.5 g ae/ha
  Visual Weed Control (%) - 20 DAA DIGSA Obs: 13%
LEFCH [4]
  Visual Weed Control (%) - 20 DAA LEFCH Obs: 48%
ECHOR; 35 g ae/ha
  Visual Weed Control (%) - 20 DAA ECHOR Obs: 35%
ECHOR; 70 g ae/ha
  Visual Weed Control (%) - 20 DAA ECHOR Obs: 40%
SCPMA; 35 g ae/ha
  Visual Weed Control (%) - 20 DAA SCPMA Obs: 0%
SCPMA; 70 g ae/ha
  Visual Weed Control (%) - 20 DAA SCPMA Obs: 0%
